Values quoted from earlier work, collected in patent US20210284969A1, “METHODS AND SYSTEMS FOR TRANSPORTATION AND CULTURE OF BUOYANT TISSUE” (eXo Cell, LLC, priority 2020, published 2021).

Columns and labels:
[1] = system: obese, diabetic yellow KK mice
brown adipose tissue = conditions: in humans

In the case of `C[C@H](Cc1ccc2c(c1)OC(C(=O)[O-])(C(=O)[O-])O2)NC[C@H](O)c1cccc(Cl)c1.[Na+].[Na+]` [CL-316243], the effect on obesity [1] is listed as “ameliorated obesity”.
In the case of `O=S(=O)(Nc1ccc(CCNC[C@H](O)c2cccnc2)cc1)c1ccc(-c2nc(-c3ccc(C(F)(F)F)cc3)cs2)cc1` [L-796568], the anti-obesity effects (obese human males) is given as “did not generate notable anti-obesity effects” and the energy expenditure (obese human males) is given as “improved energy expenditure”.
For `Nc1nc(CC(=O)Nc2ccc(CCNC[C@H](O)c3ccccc3)cc2)cs1` [migrabegron], the “brown adipose tissue activation” value (brown adipose tissue) is given as “activate brown adipose tissue”.
